smiles,measurement,setting,value
O=C(O)[C@H]1O[C@@H](Oc2cc3oc(-c4ccccc4)cc(=O)c3c(O)c2O)[C@H](O)[C@@H](O)[C@@H]1O,solubility (mole fraction),"in ethanol, 278.15 K",0.000171
same,solubility (mole fraction),"in ethanol, 283.15 K",0.000176
same,solubility (mole fraction),"in ethanol, 288.15 K",0.000181
same,solubility (mole fraction),"in ethanol, 293.15 K",0.000186
same,solubility (mole fraction),"in ethanol, 298.15 K",0.000191
same,solubility (mole fraction),"in ethanol, 303.15 K",0.000196
same,solubility (mole fraction),"in ethanol, 308.15 K",0.000202
same,solubility (mole fraction),"in ethanol, 313.15 K",0.000205
same,solubility (mole fraction),"in ethanol, 318.15 K",0.000212
same,solubility (mole fraction),"in isopropanol, 278.15 K",0.000676
same,solubility (mole fraction),"in isopropanol, 283.15 K",0.000855
same,solubility (mole fraction),"in isopropanol, 288.15 K",0.00112
same,solubility (mole fraction),"in isopropanol, 293.15 K",0.00145
same,solubility (mole fraction),"in isopropanol, 298.15 K",0.00191
same,solubility (mole fraction),"in isopropanol, 303.15 K",0.00246
same,solubility (mole fraction),"in isopropanol, 308.15 K",0.00314
same,solubility (mole fraction),"in isopropanol, 313.15 K",0.00392
same,solubility (mole fraction),"in isopropanol, 318.15 K",0.00472
same,solubility (mole fraction),"in methanol, 278.15 K",8.11e-05
same,solubility (mole fraction),"in methanol, 283.15 K",9.11e-05
same,solubility (mole fraction),"in methanol, 288.15 K",0.000101
same,solubility (mole fraction),"in methanol, 293.15 K",0.000113
same,solubility (mole fraction),"in methanol, 298.15 K",0.000127
same,solubility (mole fraction),"in methanol, 303.15 K",0.000143
same,solubility (mole fraction),"in methanol, 308.15 K",0.000157
same,solubility (mole fraction),"in methanol, 313.15 K",0.000171
same,solubility (mole fraction),"in methanol, 318.15 K",0.000192
same,solubility (mole fraction),"in n-propanol, 278.15 K",0.000768
same,solubility (mole fraction),"in n-propanol, 283.15 K",0.00101
same,solubility (mole fraction),"in n-propanol, 288.15 K",0.00133
same,solubility (mole fraction),"in n-propanol, 293.15 K",0.00171
same,solubility (mole fraction),"in n-propanol, 298.15 K",0.00224
same,solubility (mole fraction),"in n-propanol, 303.15 K",0.00289
same,solubility (mole fraction),"in n-propanol, 308.15 K",0.00363
same,solubility (mole fraction),"in n-propanol, 313.15 K",0.00451
same,solubility (mole fraction),"in n-propanol, 318.15 K",0.00551
same,solubility (mole fraction),"in water, 278.15 K",2.38e-06
same,solubility (mole fraction),"in water, 283.15 K",3.13e-06
same,solubility (mole fraction),"in water, 288.15 K",4.35e-06
same,solubility (mole fraction),"in water, 293.15 K",5.8e-06
same,solubility (mole fraction),"in water, 298.15 K",7.49e-06
same,solubility (mole fraction),"in water, 303.15 K",9.78e-06
same,solubility (mole fraction),"in water, 308.15 K",1.27e-05
same,solubility (mole fraction),"in water, 313.15 K",1.59e-05
same,solubility (mole fraction),"in water, 318.15 K",2.03e-05
